Measured values: US8722043B2, “Induction of p53 expression by neutralization of neuropilin-2 for the treatment of cancers” (Diaclone, priority 2008, dated 2014)

Assays:
[1] = test system: mutant p53 proteins; conditions: model of human xenograft; review Levesque & Eastman 2007; cited from earlier work
[2] = test system: Colo320 human tumour cells; assay: Tumour colony formation in semi-solid agar medium; type: cell-based; conditions: for number of colonies formed: 50 μg/ml, 10 days post-seeding (FIG. 9)
Description: In order to determine whether the ITAC-B1 antibody has a neutralizing activity on the formation of tumour colonies in vitro, tests for tumour colony formation in vitro in a semi-solid agar medium containing agar were carried out. The principle of this test is based on bringing Colo320 human tumour cells (which express NRP-2 at their membrane surface and, furthermore, naturally secrete VEGF into the culture medium) into contact with the ITAC-B1 antibody. 4000 Colo320 cells are seeded into each well of a 24-well plate, in a semi-solid medium containing agar, and in the presence of 10 μg/ml of anti-NRP-2 antibody ITAC-B1. By way of comparison, the same test is carried out in the presence of cytotoxic agents with a proven action, i.e. 5-fluorouracil (5-FU), used at a rate of 50 μg/ml, or of Avastin® (bevacizumab: humanized monoclonal antibodies directed against VEGF), used at a rate of 50 μg/ml, or in the presence of a control isotype antibody (mouse IgG1 monoclonal antibody (BZ1)), used at a rate of 10 μg/ml.
At 10 days post-seeding, the colonies were counted under an optical microscope.
Since neuropilin-2 is a coreceptor for VEGF, it was verified whether the activity of ITAC-B1 was dependent on an interaction between NRP-2 and the VEGF produced by the Colo320 cells. With this aim, the tests for Colo320-cell colony formation were carried out under the conditions described above, and in the presence of ITAC-B1 antibody (10 μg/ml), of bevacizumab (50 μg/ml) or of control antibody (10 μg/ml), used separately or in combination.
The results are given in FIG. 10: the y-axis represents the number of colonies formed; on the x-axis, the antibodies present in the culture medium are indicated by a “+”.

[3] = test system: HT29-NRP-2 tumour cells; assay: HT29-NRP-2 subcutaneous xenograft, tumour volume; type: in vivo, immunodeficient mice; conditions: group C: 5-FU intraperitoneally 20 mg/kg D0 to D4, 100 mg/kg at D9
Description: HT29-NRP-2 tumour cells were injected subcutaneously into 20 immunodeficient mice, at a rate of 1×10^6 cells per mouse, in the right flank. 10 days after the injection, the tumours measure approximately 5 mm×5 mm.
In accordance with the protocol described above, group B was inoculated with ITAC-B1 at D0 (12 mg/kg), D3 (6 mg/kg), D7 (12 mg/kg) and D10 (6 mg/kg). Group C was inoculated with 20 mg/kg of 5-FU from D0 to D4 and then with 100 mg/kg at D9. Group D was inoculated with ITAC-B1 at D0 (12 mg/kg), D3 (6 mg/kg), D7 (12 mg/kg) and D10 (6 mg/kg) and with 20 mg/kg of 5-FU from D0 to D4 and 100 mg/kg of 5-FU at D9.
The tumours were measured twice a week, and the volume of the tumours was calculated with the formula: V (mm^3)=d^2×D/2.
FIG. 21 represents the tumour volume as a function of time. Group A (PBS control) is represented by (⋄), group B (mice inoculated with the ITAC-B1 antibody) is represented by (▪), group C (mice inoculated with 5-FU) is represented by (Δ), and group D (mice inoculated both with the ITAC-B1 antibody and with 5-FU) is represented by (x).

[4] = test system: Colo320siRNA-ctrl cells; assay: Annexin V-APC apoptosis test with or without PFTα pretreatment; type: cell-based, human; conditions: PFTα 27 μM, 18 h pretreatment
Description: In order to correlate the induction of apoptosis with p53 expression, the Colo320siRNA-ctrl cells were pretreated for 18 h with a chemical inhibitor of p53, pifithrin-α, at a dose of 27 μM (PFTα, Sigma). After pretreatment, the cells are washed twice with 3 ml of PBS and placed in a 24-well plate, at a rate of 100 000 cells/well in 1 ml of RPMI-10% FCS. Non-pretreated cells are placed under the same conditions. The cells are incubated for 5 h with a control murine isotype antibody (BZ1) or ITAC-B1 at 20 μg/ml and the apoptosis is measured as described above.
FIG. 14 represents the results of the apoptosis-induction experiments carried out with the Colo320siRNA-ctrl cells pretreated or not pretreated with PFTα. The percentage of cells labelled with Annexin V-APC is indicated on the y-axis, the cell culture conditions are indicated on the x-axis (control consisting of medium, control consisting of medium supplemented with a control isotype antibody -BZ1-, test consisting of medium supplemented with the ITAC-B1 antibody). The results of the tests carried out with cells pretreated with PFTα are represented in light grey, those of the tests carried out with non-pretreated cells are represented in dark grey.

[5] = test system: p53 protein; assay: Western blotting of p53 expression after antibody treatment; type: cell-based, human; conditions: HT29-NRP-2 and Colo320^siRNA-ctrl; 20 ng/ml, 48 hours
Description: The HT29, HT29-NRP-2, Colo320^siRNA-ctrl tumour cells and Colo320^siRNA-NRP-2 were exposed to 20 ng/ml of ITAC-B1 antibody or of control antibody, and cultured for 48 hours. After lysis of the cell lines, migration of the protein pellets obtained on a 10% polyacrylamide gel (10 μg of protein per well) and then transfer onto a PVDF membrane, the membrane was incubated overnight with the anti-p53 primary antibody (BD Biosciences, mouse anti-human p53) diluted to 1/500. After washing in TBS/0.1% Tween20, the membranes were incubated for 1 hour with an anti-mouse IgG-HRP secondary antibody diluted to 1/6000. The results are represented in FIG. 19.

[6] = test system: HT29-NRP-2 cells; assay: Annexin V-APC apoptosis test; type: cell-based, human; conditions: selection criterion of the hybridoma clones
Description: In order to determine the ability of the ITAC-B1 antibody to induce apoptosis of tumour cells expressing NRP-2, an in vitro Annexin V-APC apoptosis test was carried out (BD Pharmingen, San Diego, Calif.). This test is based on the externalization of phosphatidylserin by apoptotic cells and on the binding of Annexin V-APC to this molecule.
1 ml of DMEM medium containing 10% of inactivated FCS and 100 000 HT29-NRP-2 cells or 100 000 HT29ctrl cells were seeded, per well, into a 24-well Nunc plate. […] In parallel, “cells alone” controls were carried out, as were negative controls (anti-human mouse IgG1 antibody (BZ1) at the same concentrations as the ITAC-B1 antibody).
[…] When the cells began to detach, 500 μl of DMEM medium-10% FCS were added per well. The cells were then centrifuged, washed twice in PBS, and then taken up in 300 μl of 1× binding buffer (provided in the kit), and then 5 μl of Annexin V-APC were subsequently added to 100 μl of this solution.
The panels of FIG. 13 are point-cloud representations of the flow cytometry analysis. For each of the panels, the fluorescence intensity (corresponding to the labelling of the cells with Annexin V-APC) is represented on the x-axis. The y-axis indicates the granulosity of the cells (Side Scatter or SSC). […] The percentage of cells labelled with Annexin V-APC (corresponding to the percentage of cells having entered into apoptosis) is indicated at the bottom-right of each panel.
The apoptosis induced was then measured by labelling with Annexin V-APC as described above.
The panels of FIG. 15 are point-cloud representations of the flow cytometry analysis. For each of the panels, the fluorescence intensity (corresponding to the labelling of the cells with Annexin V-APC) is represented on the x-axis. The y-axis indicates the granulosity (side scatter) of the cells. The conditions of treatment with the antibodies and the Avastin® are indicated to the left of the panels. The percentage of cells labelled with the Annexin V-APC, corresponding to the percentage of cells having entered into apoptosis, is indicated at the top-right of each panel.

O=C1C2CCN(CC2)C1(CO)CO [PRIMA-1]
tumour growth [1]: successfully used to inhibit tumour growth

O=c1[nH]cc(F)c(=O)[nH]1 [5-FU, 5-fluorouracil, reference compound]
number of colonies formed [2]: approximately 40
tumour volume [3]: reduction in tumour volume is observed starting from D14

COc1ccc(/C=C/c2nc(NCCCN(C)C)c3ccccc3n2)cc1 [CP-31398]
tumour growth [1]: successfully used to inhibit tumour growth

CCC(=O)OCN1C(=O)C=CC1=O [MIRA-1]
tumour growth [1]: successfully used to inhibit tumour growth

Cc1ccc(C(=O)Cn2c3c(sc2=N)CCCC3)cc1 [PFTα, pifithrin-α, reference compound]
effect of pretreatment on ITAC-B1-dependent apoptosis [4]: prevents the ITAC-B1-dependent apoptosis

bevacizumab [Avastin®]
number of colonies formed [2]: approximately 120
effect on the proliferation of the Colo320 cells (number of colonies) ([2]; bevacizumab 50 μg/ml (FIG. 10)): very little effect

B1: ITAC-B2: anti-human neuropilin-2 monoclonal antibody, VH SEQ ID No. 6, VL SEQ ID No. 8 (antibody, listed as Mus musculus, V domains shown)
VH: EVQLEESGGGLVKPGGSLKLSCAASGFTFSDYYMYWVRQTPEKRLEWVATISDGGSYTYYPDSIKGRFTISRDNARNNLYLQMSSLKSEDTAMYYCARGGPYRSWFAFWGQGTLVTVSA
VL: DIVITQTPLSLPVSLGDQASISCRSSQSIVYSNGNTYLEWYLQKPGQSPKLLIYKVSNRFSGVPDRFSGSGSGTDFTLKISRVEAEDLGVYYCFQGSHVPPTFGGGTKLEIK
expression of p53 in lines which express NRP-2 [5]: have the Ability to Induce Expression of the p53 Protein
ability to induce apoptosis of tumour cells expressing neuropilin-2 (selection of clones) [6]: ability to induce apoptosis of tumour cells expressing neuropilin-2
